The values below come from PubChem BioAssay AID504468 (NMMLSC, 2011).

Each structure is given as a SMILES string. Active and inactive are the calls of the source.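 Rule for the calls: active = compounds with a fitted EC50 of 33 micromolar or lower for the MEP2 GFP signal; inactive = the rest.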

One assay has as its system S. cerevisiae MEP2-GFP strain, flow cytometry fluorescence, 3 h. Nature of the assay: yeast MEP2-GFP fusion level changes, TOR pathway – flow cytometry, kMESF, KU SAR set 2, dose response (AID 504468).
Settings: not given
On the technique in general: In flow cytometry, cells or beads pass a laser one at a time.
Regarding `Cc1cc(Nc2cc(-c3ccccc3)nc(NCc3ccccc3)n2)n[nH]1`, the EC50 is 107 µM (inactive).
On the same count and under the same terms, the value for `CNc1nc(N)c([N+](=O)[O-])c(Nc2cccc(Oc3ccccc3)c2)n1` was 34.2 µM (inactive).
Consider `CCNc1nc(NC2CCCCC2)c([N+](=O)[O-])c(N2CCOCC2)n1`, for which the EC50 is 189 µM (inactive).
In the case of `CCOC(=O)c1c(N)nc(NC)nc1Nc1cccc(F)c1`, the EC50 was 81.8 µM (inactive).

Tested on in the next assay: not listed separately
The assay is described as above. Particulars: S. cerevisiae MEP2-GFP strain, flow cytometry fluorescence, 3 h; at 100 µM (top of the series).
Take `CNc1nc(N)c(C(=O)c2ccc(C)c(C)c2)c(Nc2cccc(Cl)c2)n1`: the GFP fluorescence (kMESF) is 4.45 kMESF (inactive).
Still for that read-out and setting: the value for `CNc1nc(N)c([N+](=O)[O-])c(Nc2ccccc2Br)n1` was 4.59 kMESF (inactive); that for `CNc1nc(N)c([N+](=O)[O-])c(Nc2ccccc2F)n1` was 4.66 kMESF (inactive); that for `CNc1nc(NC)c([N+](=O)[O-])c(Nc2cccc(Cl)c2)n1` was 4.45 kMESF (inactive).
On the same count and under the same terms, the value for `CNc1nc(N)c([N+](=O)[O-])c(Nc2cccc(Br)c2)n1` was 7.2 kMESF (inactive); that for `CNc1nc(N)c([N+](=O)[O-])c(Nc2cccc(OC)c2)n1` was 7.13 kMESF (inactive).
The same measure, in the same setting: the value for `CCNc1nc(N)c([N+](=O)[O-])c(Nc2cccc(Cl)c2)n1` was 12 kMESF (inactive).

The assay is the same for the next values; noted with them: S. cerevisiae MEP2-GFP strain, flow cytometry fluorescence, 3 h; at 300 µM (top of the series).
Regarding `COc1ccccc1-c1cc(Nc2cc(C)[nH]n2)nc(NCc2ccccc2)n1`, the GFP fluorescence (kMESF) was 2.59 kMESF (inactive).
For the compound `Cc1cc(Nc2cc(Nc3ccccc3)nc(NCc3ccccc3)n2)n[nH]1`, the GFP fluorescence (kMESF) is 2.46 kMESF (inactive).
With `COc1cccc(-c2cc(Nc3cc(C)[nH]n3)nc(NCc3ccccc3)n2)c1`, the GFP fluorescence (kMESF) was 2.66 kMESF (inactive).
Turning to `CNc1nc(N)cc(Nc2cccc(Cl)c2)n1`, the GFP fluorescence (kMESF) was 2.73 kMESF (inactive).
In the case of `CNc1nc(N)cc(Oc2cccc(Cl)c2)n1`, the GFP fluorescence (kMESF) was 2.25 kMESF (inactive).
On the same count and under the same terms, the value for `CNc1nc(N)cc(Nc2ccccc2F)n1` was 2.73 kMESF (inactive).
The same measure, in the same setting: the value for `COC(=O)c1cccc(-c2cc(Nc3cc(C)[nH]n3)nc(NCc3ccccc3)n2)c1` was 2.46 kMESF (inactive); that for `O=[N+]([O-])c1c(NC2CCCCC2)nc(NCc2ccccc2)nc1N1CCOCC1` was 2.32 kMESF (inactive).

Broadly, the EC50 is the concentration at which the effect is half-maximal.
